Experimental data as given in BindingDB's records for doi:10.1016/s0960-894x(00)00321-8 (Dupont Pharmaceuticals, 2000).

biological target: T1, Gag-Pol polyprotein [588-1027]/[588-1147] (Human immunodeficiency virus 1, UniProt P04585); test: HIV-1 RT Assay; details: pH 8.2; 37 °C
T1 construct: 588-1027; 588-1147
From the text: The IC50 of reverse transcriptase is the concentration that inhibits 50% of recombinant HIV-1 RT RNA-directed DNA polymerase activity in vitro.

Point of comparison: `CC(C)C(=O)N1c2ccccc2NC(=O)C1(C#CC1CC1)C(F)(F)F` (stereo not drawn) [3-(2-cyclopropylethynyl)-4-(2-methylpropanoyl)-3-(trifluoromethyl)-1,2,3,4-tetrahydroquinoxalin-2-one], IC50 160 nM. Against it:
- O=C(c1ccccc1)N1c2ccccc2NC(=O)C1(C#CC1CC1)C(F)(F)F (stereo not drawn) [4-benzoyl-3-(2-cyclopropylethynyl)-3-(trifluoromethyl)-1,2,3,4-tetrahydroquinoxalin-2-one] — higher, > 5000 nM
- O=C(C1CC1)N1c2ccccc2NC(=O)C1(C#CC1CC1)C(F)(F)F (stereo not drawn) [4-cyclopropanecarbonyl-3-(2-cyclopropylethynyl)-3-(trifluoromethyl)-1,2,3,4-tetrahydroquinoxalin-2-one] — within 1.5-fold, 127 nM
